Reference: patent publication US7772180B2, “Hepatitis C virus inhibitors” (Bristol-Myers Squibb Company, priority 2006, dated 2010)
Read-outs that look alike come from different tables or passages of the source.

How the values were obtained:
[1] = biological target: T1, HCV NS3/4A protease complex, BMS strain (UniProt P27958, species not given/STRAIN_BMS); experiment: FRET peptide assay to monitor HCV NS3/4A proteolytic activity (BMS strain); type: biochemical, Hepatitis C virus (genotype 1a); settings: read-out: HCV Protease (IC50); NS3/4A BMS strain; activity range class
T1 construct: other: NS3/4A BMS strain; activity range class; numeric values, unit not given; said of H77 and J4L6S; fused on or other part: A three-lysine solubilising tail at the C-terminus of NS4A; A His tag is implied by the pET21b vector and Ni-NTA purification; Both are printed for the H77 and J4L6S constructs and apply to BMS by inference
T1 sequence (P27958 1027-1657, change not shown, one chain of several): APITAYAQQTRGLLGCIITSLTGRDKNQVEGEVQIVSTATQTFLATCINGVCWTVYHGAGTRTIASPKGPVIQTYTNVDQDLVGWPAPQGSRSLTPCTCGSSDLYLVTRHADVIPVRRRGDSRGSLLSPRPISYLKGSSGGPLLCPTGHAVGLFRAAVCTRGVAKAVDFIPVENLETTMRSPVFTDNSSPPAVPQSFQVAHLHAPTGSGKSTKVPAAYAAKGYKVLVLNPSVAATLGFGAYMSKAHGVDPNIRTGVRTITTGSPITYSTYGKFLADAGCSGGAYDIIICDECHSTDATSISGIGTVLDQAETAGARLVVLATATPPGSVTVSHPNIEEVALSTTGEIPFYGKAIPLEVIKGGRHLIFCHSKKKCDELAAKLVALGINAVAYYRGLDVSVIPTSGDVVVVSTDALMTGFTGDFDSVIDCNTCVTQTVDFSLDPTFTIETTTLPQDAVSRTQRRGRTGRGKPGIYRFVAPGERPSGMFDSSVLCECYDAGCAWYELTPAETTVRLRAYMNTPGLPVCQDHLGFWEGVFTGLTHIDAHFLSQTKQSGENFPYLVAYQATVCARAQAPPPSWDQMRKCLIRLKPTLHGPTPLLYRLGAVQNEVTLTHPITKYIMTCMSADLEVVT
Procedure, shortened: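 Inhibition measured by real-time fluorescence increase as the protease cleaves RET S1 FRET depsipeptide (2 μM final). Enzyme: >90% pure BMS-strain (1a) NS3/4A at 2-3 nM final, or 300 pM with 50 μg/ml BSA for potent compounds. Buffer: 50 mM HEPES pH 7.5, 0.15 M NaCl, 0.1% Triton, 15% glycerol, 10 mM βME.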

[2] = test system: HCV replicon (strain 1b) in HUH-7 cells; experiment: HCV replicon FRET assay; type: cell-based, Hepatitis C virus; settings: activity range class
[3] = Hepatitis C virus, Huh-7, read-out: HCV Pro Replicon (EC50), HCV replicon cell assay
[4] = read-out: HCV Pro Replicon (EC50), HCV replicon cell assay

SMILES | IC50 [1] [nM] | EC50 [2, 3] [nM] | EC50 [2, 4] [nM]
C=C[C@@H]1C[C@]1(NC(=O)[C@@H]1C[C@@H](Oc2nccc3cc(OC)ccc23)CN1C(=O)[C@H](Nc1nc(C)cc(C)n1)C(C)C)C(=O)NS(=O)(=O)C1CC1 [6 first isomer, N-(4,6-dimethyl-2-pyrimidinyl)-D-valyl-(4R)—N-((1R,2S)-1-((cyclopropylsulfonyl)carbamoyl)-2-vinylcyclopropyl)-4-((6-methoxy-1-isoquinolinyl)oxy)-L-prolinamide] | 20 to 200 | > 1000 | –
C=C[C@@H]1C[C@]1(NC(=O)[C@@H]1C[C@@H](Oc2nccc3cc(OC)ccc23)CN1C(=O)[C@@H](Nc1nc(C)cc(C)n1)C(C)C)C(=O)NS(=O)(=O)C1CC1 [6 second isomer, N-(4,6-dimethyl-2-pyrimidinyl)-L-valyl-(4R)—N-((1R,2S)-1-((cyclopropylsulfonyl)carbamoyl)-2-vinylcyclopropyl)-4-((6-methoxy-1-isoquinolinyl)oxy)-L-prolinamide] | 0.6 to 20 | 100 to 1000 | –
C=C[C@@H]1C[C@]1(NC(=O)[C@@H]1C[C@@H](Oc2nccc3cc(OC)ccc23)CN1C(=O)[C@@H](Nc1ccccn1)C(C)(C)C)C(=O)NS(=O)(=O)C1CC1 [12 first isomer, 3-methyl-N-2-pyridinyl-L-valyl-(4R)—N-((1R,2S)-1-((cyclopropylsulfonyl)carbamoyl)-2-vinylcyclopropyl)-4-((6-methoxy-1-isoquinolinyl)oxy)-L-prolinamide] | 0.6 to 20 | 3 to 100 | –
C=C[C@@H]1C[C@]1(NC(=O)[C@@H]1C[C@@H](Oc2nccc3cc(OC)ccc23)CN1C(=O)[C@H](Nc1ccccn1)C(C)(C)C)C(=O)NS(=O)(=O)C1CC1 [12 second isomer, 3-methyl-N-2-pyridinyl-D-valyl-(4R)—N-((1R,2S)-1-((cyclopropylsulfonyl)carbamoyl)-2-vinylcyclopropyl)-4-((6-methoxy-1-isoquinolinyl)oxy)-L-prolinamide] | 20 to 200 | 100 to 1000 | –
C=C[C@@H]1C[C@]1(NC(=O)[C@@H]1C[C@@H](Oc2nccc3cc(OC)ccc23)CN1C(=O)[C@@H](Nc1cccnc1)C(C)(C)C)C(=O)NS(=O)(=O)C1CC1 [13 first isomer, 3-methyl-N-3-pyridinyl-L-valyl-(4R)—N-((1R,2S)-1-((cyclopropylsulfonyl)carbamoyl)-2-vinylcyclopropyl)-4-((6-methoxy-1-isoquinolinyl)oxy)-L-prolinamide] | 20 to 200 | 3 to 100 | –
C=C[C@@H]1C[C@]1(NC(=O)[C@@H]1C[C@@H](Oc2nccc3cc(OC)ccc23)CN1C(=O)[C@@H](Nc1cc(C)cc(C)n1)C(C)(C)C)C(=O)NS(=O)(=O)C1CC1 [14 first isomer, N-(4,6-dimethyl-2-pyridinyl)-3-methyl-L-valyl-(4R)—N-((1R,2S)-1-((cyclopropylsulfonyl)carbamoyl)-2-vinylcyclopropyl)-4-((6-methoxy-1-isoquinolinyl)oxy)-L-prolinamide] | 0.6 to 20 | 3 to 100 | –
C=C[C@@H]1C[C@]1(NC(=O)[C@@H]1C[C@@H](Oc2nccc3cc(OC)ccc23)CN1C(=O)[C@H](Nc1cc(C)cc(C)n1)C(C)(C)C)C(=O)NS(=O)(=O)C1CC1 [14 second isomer, N-(4,6-dimethyl-2-pyridinyl)-3-methyl-D-valyl-(4R)—N-((1R,2S)-1-((cyclopropylsulfonyl)carbamoyl)-2-vinylcyclopropyl)-4-((6-methoxy-1-isoquinolinyl)oxy)-L-prolinamide] | > 200 | 100 to 1000 | –
C=C[C@@H]1C[C@]1(NC(=O)[C@@H]1C[C@@H](Oc2nccc3cc(OC)ccc23)CN1C(=O)[C@@H](Nc1ccccc1)C(C)(C)C)C(=O)NS(=O)(=O)C1CC1 [15 first isomer, 3-methyl-N-phenyl-L-valyl-(4R)—N-((1R,2S)-1-((cyclopropylsulfonyl)carbamoyl)-2-vinylcyclopropyl)-4-((6-methoxy-1-isoquinolinyl)oxy)-L-prolinamide] | 0.6 to 20 | 3 to 100 | –
C=C[C@@H]1C[C@]1(NC(=O)[C@@H]1C[C@@H](Oc2ncc(OC)c3ccc(Cl)cc23)CN1C(=O)[C@@H](Nc1ccc(C(=O)OC(C)(C)C)cc1)C(C)(C)C)C(=O)NS(=O)(=O)C1CC1 [204 first isomer, tert-butyl 4-((S)-1-((2S,4R)-4-(7-chloro-4-methoxyisoquinolin-1-yloxy)-2-((1R,2S)-1-(cyclopropylsulfonylcarbamoyl)-2-vinylcyclopropylcarbamoyl)pyrrolidin-1-yl)-3,3-dimethyl-1-oxobutan-2-ylamino)benzoate] | 0.6 to 20 | – | 3 to 100
C=C[C@@H]1C[C@]1(NC(=O)[C@@H]1C[C@@H](Oc2ncc(OC)c3ccc(Cl)cc23)CN1C(=O)C(Nc1ccc(C(=O)OC(C)(C)C)cc1)C(C)(C)C)C(=O)NS(=O)(=O)C1CC1 (stereo partly drawn) [204 second isomer] | > 200 | – | > 1000
C=C[C@@H]1C[C@]1(NC(=O)[C@@H]1C[C@@H](Oc2ncc(OC)c3ccc(Cl)cc23)CN1C(=O)[C@@H](Nc1ccc(C#N)cc1)C(C)(C)C)C(=O)NS(=O)(=O)C1CC1 [205 first isomer, N-(4-cyanophenyl)-3-methyl-L-valyl-(4R)-4-((7-chloro-4-methoxy-1-isoquinolinyl)oxy)-N-((1R,2S)-1-((cyclopropylsulfonyl)carbamoyl)-2-vinylcyclopropyl)-L-prolinamide] | 0.6 to 20 | 3 to 100 | –
C=C[C@@H]1C[C@]1(NC(=O)[C@@H]1C[C@@H](Oc2ncc(OC)c3ccc(Cl)cc23)CN1C(=O)[C@H](Nc1ccc(C#N)cc1)C(C)(C)C)C(=O)NS(=O)(=O)C1CC1 [205 second isomer, N-(4-cyanophenyl)-3-methyl-D-valyl-(4R)-4-((7-chloro-4-methoxy-1-isoquinolinyl)oxy)-N-((1R,2S)-1-((cyclopropylsulfonyl)carbamoyl)-2-vinylcyclopropyl)-L-prolinamide] | > 200 | 3 to 100 | –
C=C[C@@H]1C[C@]1(NC(=O)[C@@H]1C[C@@H](Oc2ncc(OC)c3ccc(Cl)cc23)CN1C(=O)[C@@H](Nc1cccc(S(=O)(=O)NC(C)(C)C)c1)C(C)(C)C)C(=O)NS(=O)(=O)C1CC1 [206 first isomer, N-(3-(tert-butylsulfamoyl)phenyl)-3-methyl-L-valyl-(4R)-4-((7-chloro-4-methoxy-1-isoquinolinyl)oxy)-N-((1R,2S)-1-((cyclopropylsulfonyl)carbamoyl)-2-vinylcyclopropyl)-L-prolinamide] | 0.6 to 20 | 3 to 100 | –
C=C[C@@H]1C[C@]1(NC(=O)[C@@H]1C[C@@H](Oc2ncc(OC)c3ccc(Cl)cc23)CN1C(=O)[C@H](Nc1cccc(S(=O)(=O)NC(C)(C)C)c1)C(C)(C)C)C(=O)NS(=O)(=O)C1CC1 [206 second isomer, N-(3-(tert-butylsulfamoyl)phenyl)-3-methyl-D-valyl-(4R)-4-((7-chloro-4-methoxy-1-isoquinolinyl)oxy)-N-((1R,2S)-1-((cyclopropylsulfonyl)carbamoyl)-2-vinylcyclopropyl)-L-prolinamide] | > 200 | > 1000 | –
C=C[C@@H]1C[C@]1(NC(=O)[C@@H]1C[C@@H](Oc2ncc(OC)c3ccc(Cl)cc23)CN1C(=O)[C@@H](Nc1cccc(S(N)(=O)=O)c1)C(C)(C)C)C(=O)NS(=O)(=O)C1CC1 [207 first isomer, 3-methyl-N-(3-sulfamoylphenyl)-L-valyl-(4R)-4-((7-chloro-4-methoxy-1-isoquinolinyl)oxy)-N-((1R,2S)-1-((cyclopropylsulfonyl)carbamoyl)-2-vinylcyclopropyl)-L-prolinamide] | 0.6 to 20 | 3 to 100 | –
C=C[C@@H]1C[C@]1(NC(=O)[C@@H]1C[C@@H](Oc2ncc(OC)c3ccc(Cl)cc23)CN1C(=O)[C@H](Nc1cccc(S(N)(=O)=O)c1)C(C)(C)C)C(=O)NS(=O)(=O)C1CC1 [207 second isomer, 3-methyl-N-(3-sulfamoylphenyl)-D-valyl-(4R)-4-((7-chloro-4-methoxy-1-isoquinolinyl)oxy)-N-((1R,2S)-1-((cyclopropylsulfonyl)carbamoyl)-2-vinylcyclopropyl)-L-prolinamide] | > 200 | > 1000 | –
C=C[C@@H]1C[C@]1(NC(=O)[C@@H]1C[C@@H](Oc2ncc(OC)c3ccc(Cl)cc23)CN1C(=O)[C@@H](Nc1cccc(F)c1F)C(C)(C)C)C(=O)NS(=O)(=O)C1CC1 [208 first isomer, N-(2,3-difluorophenyl)-3-methyl-L-valyl-(4R)-4-((7-chloro-4-methoxy-1-isoquinolinyl)oxy)-N-((1R,2S)-1-((cyclopropylsulfonyl)carbamoyl)-2-vinylcyclopropyl)-L-prolinamide] | 0.6 to 20 | 3 to 100 | –
C=C[C@@H]1C[C@]1(NC(=O)[C@@H]1C[C@@H](Oc2ncc(OC)c3ccc(Cl)cc23)CN1C(=O)[C@@H](Nc1ccc(C(=O)O)cc1)C(C)(C)C)C(=O)NS(=O)(=O)C1CC1 [209 first isomer, N-(4-carboxyphenyl)-3-methyl-L-valyl-(4R)-4-((7-chloro-4-methoxy-1-isoquinolinyl)oxy)-N-((1R,2S)-1-((cyclopropylsulfonyl)carbamoyl)-2-vinylcyclopropyl)-L-prolinamide] | 0.6 to 20 | 3 to 100 | –
C=C[C@@H]1C[C@]1(NC(=O)[C@@H]1C[C@@H](Oc2ncc(OC)c3ccc(Cl)cc23)CN1C(=O)[C@H](Nc1ccc(C(=O)O)cc1)C(C)(C)C)C(=O)NS(=O)(=O)C1CC1 [209 second isomer, N-(4-carboxyphenyl)-3-methyl-D-valyl-(4R)-4-((7-chloro-4-methoxy-1-isoquinolinyl)oxy)-N-((1R,2S)-1-((cyclopropylsulfonyl)carbamoyl)-2-vinylcyclopropyl)-L-prolinamide] | > 200 | > 1000 | –
